In experiment [1] the test system is human breast skin. To be noted: human breast skin in vitro, two hours. On the procedure:
(§1) Transdermal transport. The potential of the an E^rns peptide to penetrate the skin was tested by applying 150 μl 0.3-4 mM of biotinylated peptide in a chamber containing an isolated piece of “fresh” human breast skin or in a chamber which was glued on the skin of a live pig, or applying 50 μl of peptide solution on the skin with a cotton wool tip, or applying 50 μl of a peptide solution mixed with 50 μl of contact gel on the skin for 30 minutes to 120 minutes. After the incubation time, the pig was killed, the skin was cleaned and biopsied, and a biopsy was frozen in liquid nitrogen. Cryosections of the skin samples were fixed on microscopic slides with acetone and incubated with streptavidin-FITC ( 1/100) for 30 minutes.

In experiment [2] the test system is skin of a live pig. To be noted: skin of a pig in vivo. On the procedure: as §1
Experiment [3] relates to live cells in suspension or subconfluent monolayers. Format: cell-based.

*: point of attachment. Biotin = O=C1N[C@H]2[C@H](CS[C@H]2CCCCC(=O)*)N1

Take Biotin-GRQLRIAGRRLRGRSR-NH2 [MDK-20]: the “Skin penetration of biotinylated peptide” value in experiment [1] is “could be visualized with streptavidin-FITC in the epidermis and the dermis”. For the same substance, in experiment [2], the “Skin penetration of biotinylated peptide” value is “same results” and the “Time after application at which penetration into the epidermis was observed” value came out at 30 min. Also, the “Concentration (translocation activity), optimization of E^rns peptide” value in experiment [3] worked out at 0.1 µM.

The values are drawn from patent US7435721B2, “Transport peptides such as C-terminal Erns peptide and analogues thereof” (Pepscan Systems B.V., priority 2000, dated 2008).
